Patent US8614237B2, “Benzofuran-4,5-diones as selective peptide deformylase inhibitors” (Sloan-Kettering Institute for Cancer Research, priority 2009, dated 2013)
Converted amounts (≈) assume the structure as drawn.

Assays:
[1] = tested on: panel of eight cancer cell lines; assay: Cytotoxicity profiling of 26 second generation derivatives (Alamar Blue viability assay, nuclei count); type: cell-based, human
Protocol: Cytotoxicity profiling for the 26 newly synthesized benzofuran-4,5-diones derivatives was performed on a panel of eight cancer cell lines.
The cell lines HL-60 (human acute promyelocytic leukemia), Jurkat (human acute T cell leukemia), Molt3 (acute lymphoblastic leukemia), CWR22 (prostate carcinoma), K562 (human chronic myeloid leukemia lymphoblasts), and Y79 (human retinoblastoma) were obtained from the ATCC, and cultured following ATCC recommendations. The cell line HL-60/RV+ (a P-glycoprotein-overexpressing multi-drug resistant HL-60 variant selected by continuous exposure to vincristine) was described elsewhere (Weisburg J H, Roepe P D, Dzekunov S, Scheinberg D A: Intracellular pH and multidrug resistance regulate complement-mediated cytotoxicity of nucleated human cells. J Biol Chem 1999; 274:10877-10888). The cell line ALL-3 (acute lymphoblastic leukemia isolated from a patient treated at MSKCC and characterized as Philadelphia chromosome positive) was obtained from Dr. Mark Frattini (MSKCC). The viability assay we used in this study is based on the dye resazurin and commercially sold as Alamar Blue (O'Brien J, Wilson I, Orton T, Pognan F: Investigation of the Alamar Blue (resazurin) fluorescent dye for the assessment of mammalian cell cytotoxicity. Eur J Biochem 2000; 267:5421-5426). Cells were added in 45 μL medium to the pre-plated compounds in 5 μL of 1% DMSO (v/v). After 72 h incubation was added 5 μL Alamar Blue. […] Plates were then fixed and nuclei were stained using Hoechst for the nuclear count proliferation assay. Imaging for Hoechst staining of nuclei count were acquired with an IN Cell Analyzer 2000 epifluorescence automated microscope ([…]) (GE Healthcare, Piscataway, N.J.) equipped with a 4× objective, using D360/40 excitation filter (360 nm excitation peak; +/−40 nm bandpass), HQ535/50 emission filter (535 nm emission peak; +/−50 nm bandpass) and Q505LP dichroic, and exposing fields for 200 milliseconds in the blue channel. Image analysis was conducted with the IN Cell Developer 1.7 software (GE Healthcare) using custom-developed analysis modules. The analysis module used for nuclei count performs object segmentation in the blue channel to automatically define and count the number of nuclei. Data is reported as the sum of imaged nuclei.
In addition of the Alamar Blue viability assay readout, for the adherent cell lines of this panel (CWR22 and Meso47) we performed a direct nuclei count to assess the effect of the novel derivatives on cell proliferation.

[2] = Aqueous solubility limit by laser nephelometry; type: physicochemical; settings: aqueous solution (composition not stated), kinetic from dmso stock, upper limit 10 μM
From the text: We assessed the aqueous solubility limit for the 26 novel benzofuran-4,5-diones using laser nephelometry. […] Data were compared to standards of known turbidity to assess the solubility limit for each compound.

[3] = tested on: ALL3 cells; assay: Cytotoxicity in vitro toward ALL3 cells; type: cell-based; settings: Homo sapiens
From the text: (§1) The cell lines HL-60 (human acute promyelocytic leukemia), Jurkat (human acute T cell leukemia), Molt3 (acute lymphoblastic leukemia), CWR22 (prostate carcinoma), HEK293 (human embryonic kidney), K562 (human chronic myeloid leukemia lymphoblasts), Y79 (human retinoblastoma) were obtained from the ATCC, and cultured following ATCC recommendations. The cell line NCEB-1 (human non-hodgkin lymphoma) was obtained from Dr. O'Connor (Sloan-Kettering Institute). The cell line HL-60/RV+ (a P-glycoprotein-overexpressing multi-drug resistant HL-60 variant selected by continuous exposure to vincristine) was described elsewhere (Weisburg et al., J. Biol. Chem. 1999, 274, 10877-10888). The cell line ALL-3 (acute lymphoblastic leukemia isolated from a patient treated at MSKCC and characterized as Philadelphia chromosome positive) was obtained from Dr. Mark Frattini (MSKCC). The assay used for the cytotoxicity studies is based on the dye resazurin and commercially sold as Alamar Blue (O'Brien et al., Eur. J. Biochem. 2000, 267, 5421-5426). Cells were added in 45 μL medium to the pre-plated compounds in 5 μL of 1% DMSO (v/v). After incubation for 72 hours, 5 μL of Alamar Blue was added.

[4] = In vivo toxicity of benzofuran-4,5-diones; settings: i.p. twice a day for four days, 1 to 10 mg/kg, monitored 14 days
Protocol: Lead compound SKC-BF-13 and another newly synthesized derivative SKC-BF-02 were selected in order to assess the in vivo toxicity of benzofuran-4,5-diones. Three mice per group were treated with BF-13 at three doses (i.e., 1, 5 and 10 mg/kg) or with SKC-BF-02 at two doses (i.e., 1 and 10 mg/kg). A control group of two mice were treated with the vehicle (i.e., 20% DMSO v/v). Mice were treated twice a day for four days via intraperitoneal administration. Their weight was monitored along with any other signs of toxicity for fourteen days.
ICR/SCID male mice about three weeks old were used in this study. Three mice per group were treated with BF-13 at three doses (i.e., 1, 5 and 10 mg/kg) or with SKC-BF-02 at two doses (i.e., 1 and 10 mg/kg). A control group of two mice were treated with the vehicle (20% DMSO v/v). Mice were treated twice a day for four days via intraperitoneal administration. Their weight was monitored as well as any other sign of toxicity for 14 days.
SKI 396848 (SKC-BF-12) and SKI 396840 (SKC-BF-02) were synthesized during the first round of exploratory chemistry to assess the in vivo toxicity of benzofuran-4,5-diones (as shown in FIG. 8). Three ICR/SCID male mice per group were treated with SKI 396848 at three doses: 1, 5 and 10 mg/kg or with SKI 396840 at two doses: 1 and 10 mg/kg. A control group of two mice was treated with the vehicle (20% DMSO v/v). Mice were treated twice a day for four days i.p. Their weight was monitored as well as any other sign of toxicity for 14 days. One treated mouse per group was evaluated by a pathologist.

[5] = tested on: ALL-3 cells; assay: In vivo efficacy, mouse xenograft model using ALL-3 cells; settings: 1 and 3 mg/kg i.p. twice a week for two weeks
Protocol: The in vivo efficacy of SKI 396848 (SKC-BF-12) was assessed in a mouse xenograft model using ALL-3 cells isolated from a patient with acute lymphoblastic leukemia refractory to imatinib. Three mice per group were treated at two doses: 1 and 3 mg/kg. A control group of three mice was treated with the vehicle (20% DMSO v/v). Mice were treated twice a week for two weeks i.p. Their weight was monitored as well as any other sign of toxicity for 14 days. […] Nonetheless, the observed difference between the treated groups and the control group was significant, and our study provides a solid proof of concept for the use of benzofuran-4,5-dione based HsPDF inhibitors as novel antitumor agents in vivo.

[6] = tested on: MMP-1; assay: MMP-1 %I 100uM
Protocol: Table printed on a drawing sheet, Figure 5
Head of the field: MMP-1 %I 100uM
Footnotes: -26 124 % inhibition
The patent's description of the figure: FIG. 5.
Where the first naming reader finds the target: head: MMP-1 %I 100uM

[7] = tested on: EcPDF
Protocol: Head of the field: EcPDF %I 10uM
(§2) Specificity profiling of the derivatives of benzofuran-4,5-diones.
Where the first naming reader finds the target: head: EcPDF %I 10uM

[8] = biological target: T1, HsPDF (Homo sapiens, UniProt Q9HBH1); assay: FP binding assay (fluorescence polarization, probe SKI 267088), specificity profiling and dose response; settings: dose response, 12 point doubling dilutions, upper limit 100 μM
T1 construct: A 63 amino acid N-terminally truncated human peptide deformylase (HsPDF); 6His (C); made in house; host or cells: E. coli BL21 (DE3), co-transformed with the GroES/EL chaperone plasmid
T1 sequence (Q9HBH1 64-243 limits assumed): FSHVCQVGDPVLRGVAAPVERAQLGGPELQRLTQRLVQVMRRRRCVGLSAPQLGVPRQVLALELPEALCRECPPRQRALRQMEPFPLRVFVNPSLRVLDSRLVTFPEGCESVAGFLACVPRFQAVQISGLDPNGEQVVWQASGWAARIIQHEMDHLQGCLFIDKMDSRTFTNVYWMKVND
Protocol: Specificity profiling was performed on the newly synthesized benzofuran-4,5-diones using the aforementioned FP profiling method (Antczak et al., J. Biomol. Screen 2008, 13, 285-294).
Compounds or high/low controls were added to the wells at a volume of 2 μL. […] High controls consisted of 1% DMSO (v/v). MBP-HsPDF or the metalloprotease to be tested was diluted in the assay buffer (25 mM Hepes, 50 mM NaCl, 0.005% Tween 20, pH 7.5), and 10 μL where added to the 384-well microplates (Low Volume Round Bottom NBS Treated, Corning) to achieve a final concentration of 1 μM. After addition of MBP-HsPDF to the tested compounds, the 384-well microplates were preincubated for one hour at room temperature. Then 8 μL of the probe SKI 267088 in solution in assay buffer was added to the wells at a final concentration of 5 nM. After one hour incubation at room temperature, the fluorescence polarization was read using the Amersham LEADseeker™ Multimodality Imaging System equipped with Cy3 excitation/emission filters and Cy3 FP epi-mirror. Quench tests were performed in duplicate by measuring the fluorescence polarization of wells containing the probe, pre- and post-addition of the compounds at 100 μM.
In each assay, the signal inhibition induced by the compounds was expressed as a percentage compared to high and low controls located on the same plate, as defined as % Inhibition=(high control average−read value)/(high control average−low control average)×100. The dose response was assessed in duplicate and using 12 point doubling dilutions with 100 μM compound concentration as the upper limit. The dose response curve for each set of data was fitted separately, and the two IC50 values obtained were averaged.

[9] = tested on: panel of cancer cell lines; assay: Cytotoxicity assay (Alamar Blue), primary hits and first generation derivatives; type: cell-based, human; settings: Homo sapiens; first generation, panel of nine cancer cell lines; SKC-BF-13: on four cell lines; read-out: cytotoxicity IC50, Alamar Blue viability assay
Protocol: Cytotoxicity assays were performed in order to profile the thirty-three newly synthesized benzofuran-4,5-dione derivatives on a panel of nine cancer cell lines. A heat map summarizes the calculated IC50s ([…]). Twelve out of thirteen derivatives potent toward HsPDF were also cytotoxic toward several cancer cell lines (FIG. 7).
as §1, with “Cells were added in 45 μL medium to the pre-plated compounds in 5 μL of 1% DMSO (v/v). After incubation for 72 hours, 5 μL of Alamar Blue was added.” left out

[10] = tested on: Jurkat cell line; assay: Cytotoxicity in vitro toward Jurkat cell line; type: cell-based; settings: Homo sapiens, acute T-cell leukemia
From the text: as §1

[11] = tested on: Jurkat tumors; assay: In vivo study, mouse xenograft with Jurkat tumors; settings: 5, 15 and 30 mg/kg i.p. twice a week for three weeks
Protocol: In this study, higher doses could be achieved by injecting the drug in a small volume (100 μL) of 100% DMSO (v/v). Three mice per group were treated at three doses: 5, 15 and 30 mg/kg. A control group of three mice was treated with the vehicle (100% DMSO v/v). Mice were treated i.p. twice a week for three weeks. Unfortunately, a large variability in the growth of the Jurkat tumors caused data interpretation to be difficult.

[12] = tested on: EcPDF; remark: listed apart in the source
Protocol: Head of the field: EcPDF %I 100uM
as §2
Where the first naming reader finds the target: head: EcPDF %I 100uM

O=C1C(=O)c2c(C(=O)c3ccc(Cl)c(Cl)c3)coc2C(Cl)=C1Cl [SKI 417516, 6,7-dichloro-3-(3,4-dichlorobenzoyl)benzofuran-4,5-dione]
activity against the cell lines of the panel, second generation [1]: active against all cell lines of our panel except Meso47 | solubility [2]: 5 µM (≈ 1.95 µg/mL)

COc1ccc(C(=O)c2coc3c2C(=O)C(=O)C(Br)=C3Br)cc1OC [SKC-BF-12, 6,7-Dibromo-3-(3,4-dimethoxy-benzoyl)-benzofuran-4,5-dione]
IC50 [3]: 36 µM | signs of toxicity in vivo (weight and other signs) [4]: None of the treatments were found to induce any signs of toxicity | tumor progression in ALL-3 xenograft [5]: only a slight delay in tumor progression | MMP-1 %I 100uM [6]: 46 %I | EcPDF %I 10uM [7]: 35 %I

COc1cc(C(=O)c2coc3c2C(=O)C(=O)C(Br)=C3Br)cc(OC)c1OC [SKC-BF-13, 6,7-Dibromo-3-(3,4,5-trimethoxy-benzoyl)-benzofuran-4,5-dione]
IC50 [8]: 5.2 µM | IC50 [9]: < 10 µM | IC50 [10]: 3 µM | signs of toxicity in vivo (weight and other signs) [4]: none of the treatments induced any sign of toxicity | body weight of treated groups [11]: no loss of weight | MMP-1 %I 100uM [6]: 38 %I | EcPDF %I 100uM [12]: 32 %I | EcPDF %I 10uM [7]: 32 %I
